Patent publication US6657061B2, “Polymorphic forms of 6-[4-1(1-cyclohexyl-1H-tetrazol-5-yl)butoxy]-3,4-dihydro-2(1H)-quinolinone” (priority 2001, dated 2003)

Legend:
[1] = Form A as prepared by the procedures of the '479 patent; cited from earlier work
[2] = Form A as prepared by the procedures of the '479 patent; cited from earlier work; remark: listed apart in the source
[3] = stability of the polymorphic form (statement only); type: physicochemical; details: solid form; test conditions not given
[4] = DSC thermogram of combined Forms A, B and C; relative solubility inferred from melting points; type: physicochemical; details: suggested by the lower DSC melting point (weaker crystal packing forces), not measured directly
Text: Characterization of Form A of cilostazol, Form B of cilostazol, and Form C of cilostazol was further completed using DSC thermograms, shown in FIGS. 3, 4, and 5, respectively, with DSC thermograms for combinations of Form A and Form B; Form B and Form C; and Forms A, B, and C are shown in FIGS. 6, 7, and 8 respectively. DSC data were generated using a Mettler-Toledo DSC 821^e (Columbus, Ohio) with a Julabo FT900 intercooler chiller (Julabo Company; Allentown, Pa.). In general, samples were analyzed in a vented, sealed aluminum pan. Because the endothermic peak may vary depending upon the rate of heating and the calibration and precision of the instrument, with the amount of peak variation dependent upon the heating rate used, all thermograms included herein were run under the same, consistent conditions: heating at 10° C. per minute under a nitrogen purge at 40 mL/minute.
FIG. 8 illustrates a DSC thermogram for the combination of Form A, Form B and Form C having a second heating cycle with a maximum temperature of about 110° C. with a holding time of about 30 minutes. The peaks in the third heating cycle show a Form A to Form B to Form C peak area ratio of approximately 8:2:1, respectively, with the relative amount of Form A, Form B and Form C further variable on the heat of enthalpy of each polymorphic form.

For `O=C1CCc2cc(OCCCCc3nnnn3C3CCCCC3)ccc2N1` [Form A, 6-[4-(1-cyclohexyl-1H-tetrazol-5-yl)butoxy]-3,4-dihydro-2(1H)-quinolinone], the aqueous solubility [1] is listed as “low” and the bioavailability [2] is listed as “low”.
With `O=C1CCc2cc(OCCCCc3nnnn3C3CCCCC3)ccc2N1` [Form B, 6-[4-(1-cyclohexyl-1H-tetrazol-5-yl)butoxy]-3,4-dihydro-2(1H)-quinolinone] the stability of polymorph [3] was “stable” and the “solubility relative to Form A” value [4] was “more soluble than Form A”.
